Reference: patent publication US7371536B2, “Methods for transporting vitamin C” (priority 1999, dated 2008)

Key:
human SVCT1 = target: T1, human SVCT1 (Homo sapiens, UniProt Q9UHI7); experiment: L-[14C]ascorbic acid radiotracer uptake in Xenopus oocytes expressing human SVCT1; assay type: cell-based
T1 construct: expressed in transfected cells; host or cells: Xenopus laevis oocytes injected with cRNA (vector pTLN2)
Procedure: Functional characterization in Xenopus oocytes—SVCT1 and SVCT2 cDNAs were subcloned into the pTLN2 vector (to improve functional expression in oocytes) and used for cRNA synthesis in vitro using the MEGAscript kit and T7 RNA polymerase (from Ambion). Oocytes were isolated from Xenopus laevis, treated with collagenase A and maintained at 18° C. in modified Barths' medium. Oocytes were injected with 15 ng SVCT1 or SVCT2 cRNA or water only. The radiotracer uptake and voltage-clamp experiments described below were conducted 2-5 days post-injection in standard medium of composition 100 mM NaCl, 2 mM KCl, 1 mM CaCl2, 1 mM MgCl2, and 10 mM HEPES (buffered to pH 7.5 with Tris base). For low-Na^+ or Na^+-free media, NaCl was replaced with choline chloride. For pH-dependence experiments, Na^+ media were buffered to between pH 5.5 and pH 8.0 using 0-5 mM MES, 0-5 mM HEPES and 0-5 mM Tris base. L-Ascorbic acid-containing solutions were always freshly prepared and used immediately. […] Oocytes were solubilized with 10% SDS and carbon-14 content measured by liquid scintillation counting. A two-microelectrode voltage-clamp was used to measure currents associated with SVCT1 expressed in oocytes. Oocytes were superfused at 22° C. in standard Na^+ medium and clamped at −50 mV. Current was continuously monitored by sampling at 1 Hz. Test solutions were always washed out with substrate-free, Na^+-free medium at pH 7.5 for several minutes. Once again, saturation kinetics data were fit to a modified Hill equation in which I and Imax were replaced by uptake V and maximal velocity Vmax for analysis of radiotracer uptake data.

human SVCT2 = target: T2, human SVCT2 (Homo sapiens, UniProt Q9UGH3, A167T); experiment: L-[14C]ascorbic acid radiotracer uptake in Xenopus oocytes expressing human SVCT2; assay type: cell-based
T2 construct: expressed in transfected cells; host or cells: Xenopus laevis oocytes injected with cRNA (vector pTLN2)
Procedure: Functional characterization in Xenopus oocytes—SVCT1 and SVCT2 cDNAs were subcloned into the pTLN2 vector (to improve functional expression in oocytes) and used for cRNA synthesis in vitro using the MEGAscript kit and T7 RNA polymerase (from Ambion). Oocytes were isolated from Xenopus laevis, treated with collagenase A and maintained at 18° C. in modified Barths' medium. Oocytes were injected with 15 ng SVCT1 or SVCT2 cRNA or water only. The radiotracer uptake and voltage-clamp experiments described below were conducted 2-5 days post-injection in standard medium of composition 100 mM NaCl, 2 mM KCl, 1 mM CaCl2, 1 mM MgCl2, and 10 mM HEPES (buffered to pH 7.5 with Tris base). For low-Na^+ or Na^+-free media, NaCl was replaced with choline chloride. For pH-dependence experiments, Na^+ media were buffered to between pH 5.5 and pH 8.0 using 0-5 mM MES, 0-5 mM HEPES and 0-5 mM Tris base. L-Ascorbic acid-containing solutions were always freshly prepared and used immediately. Radiotracer uptake was determined by incubating 8-12 oocytes for 30 min (within the time-course of linear uptake) in standard Na^+, low-Na^+ or Na^+-free media with 10-500 μM L-[1-^14C]ascorbic acid (final specific activity ≈0.3 GBq/mmol). Oocytes were solubilized with 10% SDS and carbon-14 content measured by liquid scintillation counting. A two-microelectrode voltage-clamp was used to measure currents associated with SVCT1 expressed in oocytes. Oocytes were superfused at 22° C. in standard Na^+ medium and clamped at −50 mV. Current was continuously monitored by sampling at 1 Hz. Test solutions were always washed out with substrate-free, Na^+-free medium at pH 7.5 for several minutes. Once again, saturation kinetics data were fit to a modified Hill equation in which I and Imax were replaced by uptake V and maximal velocity Vmax for analysis of radiotracer uptake data.

T1 sequence (Q9UHI7 whole entry): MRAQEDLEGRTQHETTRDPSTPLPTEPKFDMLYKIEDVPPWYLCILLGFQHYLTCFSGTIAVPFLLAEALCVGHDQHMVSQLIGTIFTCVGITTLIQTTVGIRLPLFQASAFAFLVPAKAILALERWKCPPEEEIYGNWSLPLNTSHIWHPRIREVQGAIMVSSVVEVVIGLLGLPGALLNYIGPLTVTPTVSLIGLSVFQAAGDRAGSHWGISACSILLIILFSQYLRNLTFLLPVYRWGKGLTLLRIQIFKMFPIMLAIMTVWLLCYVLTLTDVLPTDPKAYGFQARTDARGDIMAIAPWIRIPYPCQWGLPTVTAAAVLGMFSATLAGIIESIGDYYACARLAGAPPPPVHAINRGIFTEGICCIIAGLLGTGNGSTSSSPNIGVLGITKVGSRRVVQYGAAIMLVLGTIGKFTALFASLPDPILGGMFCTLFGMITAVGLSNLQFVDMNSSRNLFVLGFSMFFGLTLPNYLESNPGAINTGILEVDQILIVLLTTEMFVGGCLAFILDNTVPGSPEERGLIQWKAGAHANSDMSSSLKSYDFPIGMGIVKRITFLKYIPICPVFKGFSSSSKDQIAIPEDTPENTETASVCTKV
T2 sequence (Q9UGH3 whole entry A167T): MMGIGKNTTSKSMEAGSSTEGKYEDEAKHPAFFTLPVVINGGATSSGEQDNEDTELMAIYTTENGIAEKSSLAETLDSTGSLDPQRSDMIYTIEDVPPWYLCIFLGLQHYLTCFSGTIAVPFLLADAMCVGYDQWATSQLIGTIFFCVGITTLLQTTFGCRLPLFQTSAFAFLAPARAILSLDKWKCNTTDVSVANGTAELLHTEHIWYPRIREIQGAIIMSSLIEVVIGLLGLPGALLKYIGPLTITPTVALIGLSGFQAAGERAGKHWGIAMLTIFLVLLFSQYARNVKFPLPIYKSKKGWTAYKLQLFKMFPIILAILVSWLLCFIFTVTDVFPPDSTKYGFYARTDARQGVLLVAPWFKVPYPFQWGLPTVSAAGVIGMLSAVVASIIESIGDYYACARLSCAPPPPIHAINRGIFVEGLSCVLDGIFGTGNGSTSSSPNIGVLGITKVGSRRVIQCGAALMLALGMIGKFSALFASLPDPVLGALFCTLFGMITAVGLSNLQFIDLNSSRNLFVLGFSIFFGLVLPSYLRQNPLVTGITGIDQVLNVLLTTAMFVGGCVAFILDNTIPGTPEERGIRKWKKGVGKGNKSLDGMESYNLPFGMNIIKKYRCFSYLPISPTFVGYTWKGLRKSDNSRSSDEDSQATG

stimulation of uptake compared with water-injected control oocytes (human SVCT1; 500 μM L-[14C]ascorbic acid): 200 fold
uptake of L-[14C]ascorbic acid (human SVCT1; 500 μM L-[14C]ascorbic acid): 15.5±1.2 pmol/min per oocyte
Hill coefficient (nH) (human SVCT1; radiotracer uptake): ~1
half-maximal concentration (K0.5) of uptake (human SVCT1; radiotracer uptake, Michaelis-Menten-type saturation): ≈ 90 μM
stimulation of uptake compared with control oocytes (human SVCT2): 15 fold
uptake of L-[14C]ascorbic acid (human SVCT2): 1.2±0.1 pmol/min per oocyte
K0.5 of L-[14C]ascorbic acid transport (human SVCT2; radiotracer uptake, FIG. 10): 65 µM
inhibition of the uptake of 100 μM L-[14C]ascorbic acid (in words) (human SVCT2; saturating concentration): inhibited
SMILES: O=C1O[C@H]([C@@H](O)CO)C(O)=C1O [L-ascorbic acid]
